One series addresses Nav1.5 (SCN5A) (Homo sapiens, UniProt Q14524). As to the kind of experiment: Selectivity interaction (Panel of kinases, GPCRs, ion channels and transporters (enzymatic assay)) EUB0000266bCl SCN5A.
For series [1], the target named is Mitogen-activated protein kinase 10 (Homo sapiens, UniProt P53779). The conditions noted are these: at 10 µM.
In series [2] the target is T1, Rhodopsin kinase GRK1 (Homo sapiens) (UniProt Q15835).
T1 sequence (whole entry): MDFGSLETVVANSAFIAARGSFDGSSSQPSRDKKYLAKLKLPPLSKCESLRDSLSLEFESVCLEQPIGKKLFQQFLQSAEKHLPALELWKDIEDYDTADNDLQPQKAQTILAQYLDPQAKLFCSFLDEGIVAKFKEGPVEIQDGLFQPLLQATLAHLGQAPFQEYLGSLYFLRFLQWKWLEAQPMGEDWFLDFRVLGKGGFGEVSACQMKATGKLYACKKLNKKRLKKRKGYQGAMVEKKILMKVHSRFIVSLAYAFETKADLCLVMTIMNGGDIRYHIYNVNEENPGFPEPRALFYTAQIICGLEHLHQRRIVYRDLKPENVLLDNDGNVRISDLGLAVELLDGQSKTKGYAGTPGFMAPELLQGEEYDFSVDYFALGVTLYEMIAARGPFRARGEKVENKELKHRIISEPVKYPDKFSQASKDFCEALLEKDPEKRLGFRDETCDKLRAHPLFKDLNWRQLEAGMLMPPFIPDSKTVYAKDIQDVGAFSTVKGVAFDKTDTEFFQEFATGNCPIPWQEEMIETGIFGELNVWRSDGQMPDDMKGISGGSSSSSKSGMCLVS
As to the kind of experiment: Selectivity interaction (KinomeScan (DiscoverX)) EUB0000695a GRK1. The conditions noted are these: at 100 nM.

Series [3] deals with Phosphatidylinositol 4-phosphate 5-kinase type-1 alpha (Homo sapiens) (UniProt Q99755). As to the kind of experiment: Selectivity interaction (KinomeScan (DiscoverX)) EUB0000666a PIP5K1A. Conditions: at 10 µM.
Chain of Phosphatidylinositol 4-phosphate 5-kinase type-1 alpha (Homo sapiens) (Q99755 whole entry, canonical isoform): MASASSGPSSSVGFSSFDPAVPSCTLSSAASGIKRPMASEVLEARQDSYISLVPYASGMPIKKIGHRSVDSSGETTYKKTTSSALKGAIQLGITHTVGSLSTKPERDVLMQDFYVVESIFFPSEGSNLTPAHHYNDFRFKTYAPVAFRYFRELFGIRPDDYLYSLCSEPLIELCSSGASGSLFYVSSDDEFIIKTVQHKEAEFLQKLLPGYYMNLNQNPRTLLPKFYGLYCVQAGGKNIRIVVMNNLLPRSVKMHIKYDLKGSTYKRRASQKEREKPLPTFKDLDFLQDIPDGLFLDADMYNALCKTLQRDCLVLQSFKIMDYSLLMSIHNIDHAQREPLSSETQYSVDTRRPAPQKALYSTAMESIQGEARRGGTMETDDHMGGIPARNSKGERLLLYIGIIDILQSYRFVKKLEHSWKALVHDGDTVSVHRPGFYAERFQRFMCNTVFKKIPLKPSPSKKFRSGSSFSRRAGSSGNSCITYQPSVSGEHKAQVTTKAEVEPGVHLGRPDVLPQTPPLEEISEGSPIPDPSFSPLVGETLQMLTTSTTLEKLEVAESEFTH
Series [4] has as its target Casein kinase I isoform gamma-3 (Homo sapiens) (UniProt Q9Y6M4). Kind of series: Selectivity interaction (KinomeScan (DiscoverX)) EUB0000229b CSNK1G3. Conditions: at 10 µM.
The target in series [5] is T2, Tyrosine-protein kinase JAK3 (Homo sapiens, UniProt P52333).
T2 sequence (P52333 whole entry): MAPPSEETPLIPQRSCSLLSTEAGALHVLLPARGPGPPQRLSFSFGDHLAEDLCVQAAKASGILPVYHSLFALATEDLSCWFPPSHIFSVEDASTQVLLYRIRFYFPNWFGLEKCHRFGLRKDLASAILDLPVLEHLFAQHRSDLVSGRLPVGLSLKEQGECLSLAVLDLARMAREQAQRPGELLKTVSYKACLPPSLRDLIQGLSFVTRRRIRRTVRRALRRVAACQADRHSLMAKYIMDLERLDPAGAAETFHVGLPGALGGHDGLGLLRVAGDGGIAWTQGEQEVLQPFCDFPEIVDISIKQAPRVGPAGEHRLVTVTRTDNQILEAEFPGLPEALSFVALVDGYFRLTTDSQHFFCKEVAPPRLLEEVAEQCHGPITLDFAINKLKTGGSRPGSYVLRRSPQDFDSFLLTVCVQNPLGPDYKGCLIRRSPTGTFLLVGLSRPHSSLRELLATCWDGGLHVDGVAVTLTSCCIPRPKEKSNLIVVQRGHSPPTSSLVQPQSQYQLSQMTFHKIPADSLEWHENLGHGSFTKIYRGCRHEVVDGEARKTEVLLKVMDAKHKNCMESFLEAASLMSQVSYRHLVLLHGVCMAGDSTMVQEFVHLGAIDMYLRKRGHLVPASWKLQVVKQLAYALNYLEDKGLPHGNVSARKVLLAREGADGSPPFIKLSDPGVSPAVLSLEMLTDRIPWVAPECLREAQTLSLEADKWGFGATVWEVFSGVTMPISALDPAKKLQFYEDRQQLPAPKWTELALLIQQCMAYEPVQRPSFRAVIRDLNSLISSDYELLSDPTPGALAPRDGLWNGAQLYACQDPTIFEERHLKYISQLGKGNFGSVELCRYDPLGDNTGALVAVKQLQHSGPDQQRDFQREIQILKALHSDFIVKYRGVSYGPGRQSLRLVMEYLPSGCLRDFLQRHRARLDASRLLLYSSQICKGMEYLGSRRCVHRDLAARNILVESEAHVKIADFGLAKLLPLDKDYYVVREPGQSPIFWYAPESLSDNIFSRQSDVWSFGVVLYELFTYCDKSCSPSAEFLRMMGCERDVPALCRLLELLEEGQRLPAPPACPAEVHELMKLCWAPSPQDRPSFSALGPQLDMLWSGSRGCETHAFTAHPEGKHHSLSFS
As to the kind of experiment: Selectivity interaction (Kinase panel (33PanQinase(R) Activity Assay)) EUB0000877a JAK3.

Series [6] addresses T3, Aurora kinase C (Homo sapiens) (UniProt Q9UQB9).
T3 sequence (whole entry): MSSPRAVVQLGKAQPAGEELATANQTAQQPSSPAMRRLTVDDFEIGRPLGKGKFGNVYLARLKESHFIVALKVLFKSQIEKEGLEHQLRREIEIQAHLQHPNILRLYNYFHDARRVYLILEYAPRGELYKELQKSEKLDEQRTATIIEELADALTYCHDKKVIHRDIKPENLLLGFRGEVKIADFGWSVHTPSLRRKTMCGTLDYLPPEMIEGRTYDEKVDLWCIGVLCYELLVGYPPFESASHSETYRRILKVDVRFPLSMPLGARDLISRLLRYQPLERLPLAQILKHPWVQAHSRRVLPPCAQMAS
Kind of series: Selectivity interaction (KinomeScan (DiscoverX)) EUB0000618a AURKC. Conditions: at 10 µM.

Chain of Casein kinase I isoform gamma-3 (Homo sapiens) (Q9Y6M4 whole entry, looked up, canonical isoform): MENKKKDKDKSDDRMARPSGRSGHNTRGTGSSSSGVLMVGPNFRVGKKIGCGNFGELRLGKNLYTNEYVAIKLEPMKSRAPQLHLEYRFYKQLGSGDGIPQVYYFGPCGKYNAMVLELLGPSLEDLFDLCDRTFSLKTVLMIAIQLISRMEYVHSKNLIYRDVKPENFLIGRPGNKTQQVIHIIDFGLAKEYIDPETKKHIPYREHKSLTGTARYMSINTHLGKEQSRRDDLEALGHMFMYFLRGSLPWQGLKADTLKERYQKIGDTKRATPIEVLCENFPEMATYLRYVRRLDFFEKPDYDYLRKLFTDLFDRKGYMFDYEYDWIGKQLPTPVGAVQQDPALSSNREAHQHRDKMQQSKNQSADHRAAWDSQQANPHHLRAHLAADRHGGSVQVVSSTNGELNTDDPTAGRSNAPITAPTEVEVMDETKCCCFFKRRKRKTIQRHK
Chain of Nav1.5 (SCN5A) (Q14524 whole entry): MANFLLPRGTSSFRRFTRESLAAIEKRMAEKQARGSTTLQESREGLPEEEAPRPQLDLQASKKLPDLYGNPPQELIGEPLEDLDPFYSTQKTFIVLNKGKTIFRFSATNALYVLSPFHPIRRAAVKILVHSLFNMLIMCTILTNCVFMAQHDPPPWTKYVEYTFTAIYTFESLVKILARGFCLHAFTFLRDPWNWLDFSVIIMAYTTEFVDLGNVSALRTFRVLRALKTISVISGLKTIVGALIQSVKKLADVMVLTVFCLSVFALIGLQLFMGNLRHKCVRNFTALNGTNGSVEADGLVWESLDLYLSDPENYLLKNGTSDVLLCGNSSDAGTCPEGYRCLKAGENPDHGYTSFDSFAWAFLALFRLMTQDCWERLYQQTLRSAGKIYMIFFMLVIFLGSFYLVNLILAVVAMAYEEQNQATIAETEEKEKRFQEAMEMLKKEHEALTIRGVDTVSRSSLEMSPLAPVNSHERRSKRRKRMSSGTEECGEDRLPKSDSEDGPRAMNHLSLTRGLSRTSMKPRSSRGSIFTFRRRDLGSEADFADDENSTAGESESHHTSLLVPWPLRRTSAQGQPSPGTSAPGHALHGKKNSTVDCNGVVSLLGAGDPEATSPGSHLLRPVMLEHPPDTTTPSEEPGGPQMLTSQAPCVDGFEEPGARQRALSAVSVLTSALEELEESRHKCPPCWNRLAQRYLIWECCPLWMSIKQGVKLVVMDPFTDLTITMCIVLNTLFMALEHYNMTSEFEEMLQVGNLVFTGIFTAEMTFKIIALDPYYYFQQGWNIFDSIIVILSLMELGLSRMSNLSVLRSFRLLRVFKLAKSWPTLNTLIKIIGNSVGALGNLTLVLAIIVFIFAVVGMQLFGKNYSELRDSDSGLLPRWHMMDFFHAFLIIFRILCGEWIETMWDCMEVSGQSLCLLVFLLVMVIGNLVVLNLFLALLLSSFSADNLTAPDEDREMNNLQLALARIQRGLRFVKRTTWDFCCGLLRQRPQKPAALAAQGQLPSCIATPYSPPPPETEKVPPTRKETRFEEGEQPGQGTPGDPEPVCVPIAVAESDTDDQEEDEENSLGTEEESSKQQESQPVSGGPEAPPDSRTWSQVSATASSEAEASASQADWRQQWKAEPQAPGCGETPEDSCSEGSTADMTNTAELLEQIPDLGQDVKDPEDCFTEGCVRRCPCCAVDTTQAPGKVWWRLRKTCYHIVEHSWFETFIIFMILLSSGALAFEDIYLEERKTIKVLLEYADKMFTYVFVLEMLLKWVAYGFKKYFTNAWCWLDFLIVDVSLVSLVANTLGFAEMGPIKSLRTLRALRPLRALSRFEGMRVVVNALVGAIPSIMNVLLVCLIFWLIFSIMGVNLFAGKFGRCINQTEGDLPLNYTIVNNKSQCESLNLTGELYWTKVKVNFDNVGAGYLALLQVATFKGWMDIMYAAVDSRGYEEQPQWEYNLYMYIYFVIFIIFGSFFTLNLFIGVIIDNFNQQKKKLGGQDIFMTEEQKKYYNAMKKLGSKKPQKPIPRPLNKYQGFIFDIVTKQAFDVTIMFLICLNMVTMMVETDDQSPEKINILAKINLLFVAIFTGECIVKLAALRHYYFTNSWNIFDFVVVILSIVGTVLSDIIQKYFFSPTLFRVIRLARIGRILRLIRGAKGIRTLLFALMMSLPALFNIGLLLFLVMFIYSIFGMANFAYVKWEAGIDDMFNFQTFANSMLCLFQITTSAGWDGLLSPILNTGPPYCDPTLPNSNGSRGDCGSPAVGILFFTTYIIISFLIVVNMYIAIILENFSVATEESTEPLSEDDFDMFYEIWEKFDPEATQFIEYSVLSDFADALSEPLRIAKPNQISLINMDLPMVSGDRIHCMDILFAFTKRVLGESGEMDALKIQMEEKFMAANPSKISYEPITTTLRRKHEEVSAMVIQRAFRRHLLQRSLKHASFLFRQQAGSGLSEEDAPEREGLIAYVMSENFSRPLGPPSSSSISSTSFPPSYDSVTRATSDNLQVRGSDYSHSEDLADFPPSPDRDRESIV
Chain of Mitogen-activated protein kinase 10 (P53779 whole entry): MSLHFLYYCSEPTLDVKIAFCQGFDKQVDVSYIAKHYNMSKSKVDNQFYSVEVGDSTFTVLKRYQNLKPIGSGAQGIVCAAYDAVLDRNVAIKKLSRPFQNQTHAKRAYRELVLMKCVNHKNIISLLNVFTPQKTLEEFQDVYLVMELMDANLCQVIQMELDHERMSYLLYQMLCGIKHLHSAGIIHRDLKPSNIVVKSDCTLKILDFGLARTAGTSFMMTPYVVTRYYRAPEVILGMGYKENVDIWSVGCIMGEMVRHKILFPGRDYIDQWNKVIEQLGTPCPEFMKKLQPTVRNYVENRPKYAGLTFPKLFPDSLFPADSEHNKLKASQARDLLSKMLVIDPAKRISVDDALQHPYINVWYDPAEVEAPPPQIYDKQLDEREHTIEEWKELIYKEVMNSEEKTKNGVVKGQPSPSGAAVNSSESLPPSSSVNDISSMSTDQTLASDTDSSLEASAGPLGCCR

Take `CCn1c(-c2nc3cc(C(=O)N4CCCC(N)C4)ccc3n2C)cc2ccccc21` (configuration not stated): on Nav1.5 (SCN5A), the XC50 is 31.6 µM.
In series [1], `CCN(CC)CCCCNc1ncc2cc(-c3cc(OC)cc(OC)c3)c(NC(=O)NC(C)(C)C)nc2n1` registered a % of control of 100%.
The compound `Cc1cc(F)c(C(=O)Nc2cccc(-c3nncn3C(C)C)n2)cc1-n1cnc(C2CC2)c1` registered a % of control in series [2] of 100%.
`O=C(NOC[C@H](O)CO)c1ccc(F)c(F)c1Nc1ccc(I)cc1F` registered a % of control in series [3] of 91%.
With `COc1cc(N(C)c2ccnc3ccc(C(F)(F)F)cc23)cc(OC)c1OC`, in series [4], the % binding amounted to 86%.
As to `CCC(=O)N1CC[C@H](Nc2ncnc3c2CN(c2cnc(OC)c(C(F)(F)F)c2)CC3)C1` [LENIOLISIB], the IC50 – broadly, the midpoint of a concentration-inhibition curve – in series [5] was above 10 µM.
`O[C@H]1CC[C@H](Nc2ncc3nc(Nc4c(F)cc(F)cc4F)n([C@H]4CCOC4)c3n2)CC1`: in series [6], the % of control came out at 100%.

These data come from ChEMBL document CHEMBL5465560, “Selectivity Literature for EUbOPEN Chemogenomic Library” (2024).
